For one assay, the system named is LLC1 tumors. The assay is described as follows: Tumor growth assay, LLC1 injected subcutaneously. It counts as in vivo, mice. The settings on record: for tumor vascularization (PECAM-1), vehicle = 100%: 40 mg/kg/day oral for 8 days. The method, then:
5. 10^5 of LLC1 or B16F0 were injected subcutaneously on the back of mice. […] Frozen sections of tumors were stained with anti-PECAM-1 antibody (rat monoclonal, [74]).

The subject of a further assay is cNos. Kind of assay: Pharmacological profiling (Cerep), Table S1. It counts as biochemical.
The next assay deals with T1, NOX2 (Homo sapiens, UniProt P04839).
T1 construct: Membranes from NOX2 expressing PMN cells; endogenous in cells; host or cells: PMN cells
T1 sequence (P04839 2-570 limits assumed): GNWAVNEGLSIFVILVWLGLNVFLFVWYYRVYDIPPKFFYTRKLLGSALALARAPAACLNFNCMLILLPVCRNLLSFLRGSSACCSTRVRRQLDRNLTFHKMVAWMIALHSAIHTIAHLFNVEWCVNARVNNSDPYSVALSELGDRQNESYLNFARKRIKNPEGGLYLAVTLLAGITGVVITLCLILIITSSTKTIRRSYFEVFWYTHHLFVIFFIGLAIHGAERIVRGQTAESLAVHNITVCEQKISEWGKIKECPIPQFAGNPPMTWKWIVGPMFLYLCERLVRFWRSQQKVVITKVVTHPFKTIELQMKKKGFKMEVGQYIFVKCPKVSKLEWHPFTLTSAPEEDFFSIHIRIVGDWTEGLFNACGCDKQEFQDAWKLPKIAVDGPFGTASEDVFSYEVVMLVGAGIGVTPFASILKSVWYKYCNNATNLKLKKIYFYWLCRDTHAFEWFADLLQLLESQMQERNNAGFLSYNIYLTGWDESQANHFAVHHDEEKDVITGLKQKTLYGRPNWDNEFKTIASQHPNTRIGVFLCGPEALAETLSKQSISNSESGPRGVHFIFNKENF
T1 sequence (P13498 2-195 partner limits assumed): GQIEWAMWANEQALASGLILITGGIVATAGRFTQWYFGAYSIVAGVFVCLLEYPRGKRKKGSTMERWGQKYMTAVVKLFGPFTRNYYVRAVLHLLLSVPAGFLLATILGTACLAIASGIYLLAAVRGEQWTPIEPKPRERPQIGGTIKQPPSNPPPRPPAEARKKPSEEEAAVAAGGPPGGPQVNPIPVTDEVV
The assay is described as follows: NOX inhibition in cell free assay, membranes from NOX2 expressing PMN cells (Amplex Red ROS). It counts as biochemical. As to the method: Membranes from NOX2 expressing PMN cells or from cells overexpressing NOX1 or NOX4 were prepared as previously described. After resuspension in sonication buffer (11% sucrose, 120 mM NaCl, 1 mM EGTA in PBS, pH 7.4 for NOX4-expressing cells) or in relax buffer (10 mM Pipes, 3 mM NaCl, 3.5 mM MgCl2, 0.1 M KCl, pH 7.4), cells were broken by sonication and centrifuged (200 g, 10 min). The supernatant was loaded onto a 17/40% (w/v) discontinuous sucrose gradient and centrifuged (150,000 g for 30 min). Membrane fractions were collected and stored at −80°C. ROS production measurements of membranes expressing different NOX subunits was determined as previously described using the Amplex Red method (Invitrogen).

The subject of assay [1] is murine and human endothelial cells (MLEC, HUVEC, mouse endothelioma). The assay is described as follows: ROS measurement with DHE in endothelial cells stimulated with VEGF or bFGF. It counts as cell-based. As to conditions: 10 µM. As to the method: Endothelial cells were seeded on glass slides and stained with dihydroethidium (DHE). Images were captured with an inverted microscope and analyzed with Metafluor imaging software (MDS Analytical Technologies). Quantification was performed by measuring the fluorescence intensity of over minimum 50 endothelial cells per slide.

The target of the next assay is iNoS (Homo sapiens, UniProt P35228). The assay is described as follows: Pharmacological profiling (Cerep), Table S1.
In another assay the target is xanthine oxidase (Homo sapiens, UniProt P47989). Kind of assay: Pharmacological profiling (Cerep), Table S1.
Another assay addresses MAO-B (Homo sapiens, UniProt P27338). The assay is described as follows: Pharmacological profiling (Cerep), Table S1.

By % Inhibition is commonly meant how much of the control response was suppressed. A low value points to a weak effect. Broadly, the Ki is a dissociation constant, usually derived from enzyme kinetics or from competition with a known ligand. Low readings indicate tighter binding, high ones weaker binding.

MAO-B, sequence (P27338 whole entry, species assumed): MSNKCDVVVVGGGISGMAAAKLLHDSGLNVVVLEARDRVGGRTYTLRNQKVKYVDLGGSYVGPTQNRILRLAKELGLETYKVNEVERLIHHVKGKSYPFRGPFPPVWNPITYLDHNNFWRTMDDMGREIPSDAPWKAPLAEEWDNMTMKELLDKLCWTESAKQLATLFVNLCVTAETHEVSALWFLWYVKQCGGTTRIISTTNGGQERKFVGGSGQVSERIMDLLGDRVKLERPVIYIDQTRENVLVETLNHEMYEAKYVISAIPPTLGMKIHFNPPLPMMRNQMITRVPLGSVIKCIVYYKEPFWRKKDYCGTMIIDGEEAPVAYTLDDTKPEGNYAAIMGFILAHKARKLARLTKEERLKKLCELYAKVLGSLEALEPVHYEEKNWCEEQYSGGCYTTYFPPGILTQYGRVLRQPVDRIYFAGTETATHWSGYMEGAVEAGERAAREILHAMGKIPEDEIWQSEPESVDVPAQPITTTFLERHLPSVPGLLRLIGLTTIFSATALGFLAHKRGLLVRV
xanthine oxidase, sequence (P47989 whole entry, species assumed): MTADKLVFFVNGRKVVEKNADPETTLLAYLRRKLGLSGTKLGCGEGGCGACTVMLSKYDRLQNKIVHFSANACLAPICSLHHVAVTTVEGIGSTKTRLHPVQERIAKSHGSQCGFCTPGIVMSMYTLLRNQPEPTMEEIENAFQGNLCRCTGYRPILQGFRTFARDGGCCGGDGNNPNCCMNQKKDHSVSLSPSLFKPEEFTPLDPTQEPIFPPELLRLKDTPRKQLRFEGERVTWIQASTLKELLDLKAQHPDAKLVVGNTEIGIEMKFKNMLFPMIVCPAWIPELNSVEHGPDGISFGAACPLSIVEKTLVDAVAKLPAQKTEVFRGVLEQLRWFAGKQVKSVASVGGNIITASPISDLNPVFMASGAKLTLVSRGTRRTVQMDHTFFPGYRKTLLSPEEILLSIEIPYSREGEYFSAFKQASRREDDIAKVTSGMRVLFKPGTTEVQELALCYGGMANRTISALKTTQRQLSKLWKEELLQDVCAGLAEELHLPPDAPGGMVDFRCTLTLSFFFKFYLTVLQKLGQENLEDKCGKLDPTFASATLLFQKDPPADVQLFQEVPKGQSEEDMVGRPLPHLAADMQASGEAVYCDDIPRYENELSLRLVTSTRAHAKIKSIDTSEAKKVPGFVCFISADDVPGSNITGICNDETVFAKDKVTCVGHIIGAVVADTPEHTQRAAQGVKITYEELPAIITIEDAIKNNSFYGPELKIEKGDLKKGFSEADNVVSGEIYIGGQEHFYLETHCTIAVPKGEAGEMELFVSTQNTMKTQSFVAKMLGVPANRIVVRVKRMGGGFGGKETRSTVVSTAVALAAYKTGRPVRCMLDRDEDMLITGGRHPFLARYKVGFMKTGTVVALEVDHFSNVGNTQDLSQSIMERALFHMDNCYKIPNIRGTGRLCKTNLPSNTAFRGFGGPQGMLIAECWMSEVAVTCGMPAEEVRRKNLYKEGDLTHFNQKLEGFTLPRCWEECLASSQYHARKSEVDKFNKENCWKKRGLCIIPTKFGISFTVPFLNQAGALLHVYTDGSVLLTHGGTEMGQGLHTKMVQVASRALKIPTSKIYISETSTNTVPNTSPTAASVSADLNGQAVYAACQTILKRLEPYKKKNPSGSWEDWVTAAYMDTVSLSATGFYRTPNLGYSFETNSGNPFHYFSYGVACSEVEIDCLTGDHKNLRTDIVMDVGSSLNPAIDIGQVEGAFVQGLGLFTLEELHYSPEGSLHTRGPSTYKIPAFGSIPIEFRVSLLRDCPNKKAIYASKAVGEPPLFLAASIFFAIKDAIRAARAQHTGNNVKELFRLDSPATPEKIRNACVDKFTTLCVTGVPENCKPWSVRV

`Cc1c2c(=O)n(-c3ccccc3Cl)[nH]c2cc(=O)n1Cc1ccccn1` [GKT136901]: the “reduction of vascular area (PECAM-1) compared to vehicle” value in the assay on LLC1 tumors (LLC1, 40 mg/kg daily oral from one day after injection) is on record as 59% ±9.3. Also, in the assay on LLC1 tumors (LLC1, 40 mg/kg daily oral from one day after injection, one week of treatment), the “tumor size smaller compared to vehicle-treated mice” value was 34% ±5.8. The results for the “tumor vascularization (PECAM-1), vehicle = 100%” value with LLC1 tumors (LLC1 in PPARα deficient mice) and in the assay with LLC1 tumors (LLC1 in WT mice) were 129% ±23 and 65% ±13, respectively. In addition, in the assay on LLC1 tumors (established LLC1 tumors, start 8 days after implantation, day 12), the “reduction of tumor vascularization (PECAM-1), therapeutic treatment” value is given as 36% ±16. Moreover, the “delay of tumor progression (tumor volume), therapeutic treatment” value in the assay with LLC1 tumors (established LLC1 tumors, start 8 days after implantation, GKT136901 40 mg/kg per os, DC101 0.8 mg i.p. every 2 days) was 35% ±5.7. In addition, the “% Inhibition at 10 µM” value in the assay on cNos amounted to 0%; at iNoS, 0%; on xanthine oxidase, 5%; at MAO-B, 0%. Besides, on NOX2, the “potency on NOX2 relative to NOX1 and NOX4” value is on record as “ten-fold lower”. For the same compound, on NOX2 (Figure S2), the “extent of inhibition of oxidase activity of NOX2” value was “only a partial effect”. Moreover, on NOX2 (cell-free, membranes from NOX2 expressing PMN cells), the Ki was 1.53 ± 0.09 µM. Also, the “ROS induction after VEGF or bFGF stimulation” value in assay [1] is given as “did not induce ROS”.

The values above are taken from PMC3034713, “Targeting Vascular NADPH Oxidase 1 Blocks Tumor Angiogenesis through a PPARα Mediated Mechanism” (PLoS ONE, 2011).
